{"source": "patent US20180193361A1", "about": "“GUT ANTI-INFLAMMATORY AGENTS FOR REGULATION OF HIGH BLOOD GLUCOSE LEVELS” (UNIVERSITY HEALTH NETWORK, priority 2015, published 2018)", "key": {"[1]": {"test_system": "gluconeogenesis enzyme and adipogenesis-related genes", "assay": "q-PCR of gluconeogenesis and adipogenesis genes, HFD or HFD 5-ASA mice", "type": "in vivo", "excerpt": "We extracted total RNA from isolated or cultured cells using a RNeasy Mini Kit (Qiagen), and for subcutaneous adipose tissue (SAT) and VAT we used a RNeasy Lipid Extraction kit (Qiagen). We reverse-transcribed the RNA by random primers with M-MLV (Invitrogen). We performed q-PCR with a 7900HT PCR system (Applied Biosystems) using SYBR® Green master mix reagent (Applied Biosystems). We assessed expression of adipocyte P2 (aP2), CCAAT/enhancer-binding protein-α (CEBPα), Peroxisome proliferator-activated receptor-γ (PPARγ), and sterol regulatory element-binding protein (SREBP) cDNA. […] We calculated relative fold changes in gene expression normalized to 18s or GAPDH by the ΔΔCT method using the equation 2-ΔΔCT. The results are shown as fold changes compared to the control group."}, "[2]": {"test_system": "splenic T cells", "assay": "In vitro IFNγ secretion, anti-CD3/CD28-activated splenic T cells", "type": "cell-based", "conditions": "splenic T cells from HFD-fed WT mice, 72 hour; 5-ASA 0.1 mM", "procedure": "To measure the effect of IFNγ on tight-junction gene expression, we treated MODE-K cells with recombinant mouse IFNγ (Biolegend). We purified bulk dendritic cells and T cells from murine small bowels and spleens using a negative selection DC or T cell isolation kit (Stem Cell Technologies). We plated T cells at 5×10^5 cells/well with plate-bound anti-CD3/CD28 (1 μg/ml, Biolegend). […] We collected supernatants for cytokine measurements after 72 hour incubation. […] After 24 hours, we washed the cells with PBS and co-cultured them (1×10^4 cells/well) with OVA323-339 peptide and OT-II splenic or small bowel T cells (5×10^4 cells/well) for 48 hours. Supernatants were collected at 48 hours for cytokine measurement. We measured serum cytokines by Luminex Multiplex cytokine assay (Millipore, run by the UHN Microarray Center), and quantified IL-10 and IFN-γ in supernatants of anti-CD3/CD28-stimulated splenocytes or bowel immune cells (Winer et al., 2009b) by ELISA (Biolegend)."}}, "data": [{"smiles": "Nc1ccc(O)c(C(=O)O)c1", "note": "[5-ASA, 5-aminosalicylic acid]", "values": [{"measurement": "gluconeogenesis enzyme gene expression", "setting": "[1]; HFD vs HFD 5-ASA 1500 mg/kg/day", "value": "could not detect significant changes"}, {"measurement": "expression of adipogenesis-related genes", "setting": "[1]; VAT or SAT, HFD 5-ASA relative to HFD, 18 weeks of diet", "value": "no effects"}, {"measurement": "IFNγ production", "setting": "[2]", "value": "not"}]}]}
